Assay results from US20050009924A1 (priority 2003, published 2005).

Columns and labels:
[1] = test system: transcriptional activity of hTERT; assay: SEAP reporter assay of hTERT expression, PhTERT-SEAP (H1299); assay type: cell-based, human; conditions: PhTERT-SEAP(hTERT-H1299)
Outline: (§1)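 H1299 or hTERT-BJ1 cells stably carrying hTERT- or CMV-promoter–SEAP constructs (G418-selected), treated with compounds for 24 h at 37 °C. Media heated 65 °C for 10 min, mixed with diethanolamine buffer and 12 mM p-nitrophenyl phosphate; SEAP activity taken as the rate of A405 increase.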

[2] = test system: hTERT-BJ1 cells; assay: MTT relative viability, PhTERT-SEAP (hTERT-BJ1) cells; conditions: PhTERT-SEAP (hTERT-BJ1)
[3] = test system: hepatitis B virus transfected hepatoma cell lines, HepG 2.2.15 cells; assay: Cytotoxicity assay, 2.2.15 cells; assay type: cell-based, human; conditions: 48 h of drug exposure
[4] = test system: rat glioma C6 cells; assay: Cytotoxicity assay (XTT colorimetric), C6 cells; assay type: cell-based; conditions: 48 h of drug exposure
[5] = test system: non-small-cell lung cancer cells H1299; assay: MTT relative viability, PhTERT-SEAP (H1299) cells; conditions: PhTERT-SEAP(hTERT-H1299)
[6] = test system: transcriptional activity of hTERT; assay: SEAP reporter assay of hTERT expression, PhTERT-SEAP (hTERT-BJ1); assay type: cell-based, human; conditions: PhTERT-SEAP (hTERT-BJ1)
Outline: as §1

[7] = test system: human hepatoma G2 cells; assay: Cytotoxicity assay (XTT colorimetric), Hep G2; assay type: cell-based; conditions: 48 h of drug exposure

O=C(Nc1ccc(NC(=O)c2c(Cl)cc(Cl)cc2Cl)c2c1C(=O)c1ccccc1C2=O)c1c(Cl)cc(Cl)cc1Cl [VI13, 1,4-Bis(2,4,6-trichlorobenzoylamido)-9,10-anthracenedione]
Relative SEAP activity (%) ([1]; 1.5 μM): 98 ± 4.5%
SEAP/vibility ([1]; 1.5 μM): 0.87
Relative SEAP activity (%) ([1]; 15 μM): 66 ± 2.4%
SEAP/vibility ([1]; 15 μM): 0.61
Relative SEAP activity (%) ([1]; 153 μM): 41 ± 3.9%
SEAP/vibility ([1]; 153 μM): 0.03
Relative MTT viability (%) ([2]; 1.5 μM): 98 ± 8.5%
Relative MTT viability (%) ([2]; 15 μM): 63 ± 7.0%
Relative MTT viability (%) ([2]; 153 μM): 40 ± 22.2%
IC50 [3]: 3.63 µM
IC50 [4]: > 20 µM
Relative MTT viability (%) ([5]; 1.5 μM): 113 ± 4.8%
Relative MTT viability (%) ([5]; 15 μM): 107 ± 5.4%
Relative MTT viability (%) ([5]; 153 μM): 20 ± 3.3%
Relative SEAP activity (%) ([6]; 1.5 μM): 31 ± 23.0%
SEAP/vibility ([6]; 1.5 μM): 0.32
Relative SEAP activity (%) ([6]; 15 μM): 12 ± 12.5%
SEAP/vibility ([6]; 15 μM): 0.19
Relative SEAP activity (%) ([6]; 153 μM): 4 ± 15%
SEAP/vibility ([6]; 153 μM): 0.09
IC50 [7]: 2.77 µM

O=C(Nc1ccc(NC(=O)c2c(F)ccc(F)c2F)c2c1C(=O)c1ccccc1C2=O)c1c(F)ccc(F)c1F [VI14, 1,4-Bis(2,3,6-trifluorobenzoylamido)-9,10-anthracenedione]
Relative SEAP activity (%) ([1]; 1.8 μM): 91 ± 5.2%
SEAP/vibility ([1]; 1.8 μM): 0.82
Relative SEAP activity (%) ([1]; 18 μM): 97 ± 4.1%
SEAP/vibility ([1]; 18 μM): 1.09
Relative SEAP activity (%) ([1]; 180 μM): 91 ± 3.3%
SEAP/vibility ([1]; 180 μM): 1.64
Relative MTT viability (%) ([2]; 1.8 μM): 102 ± 3.3%
Relative MTT viability (%) ([2]; 18 μM): 90 ± 6.0%
Relative MTT viability (%) ([2]; 180 μM): 70 ± 6.8%
IC50 [3]: > 20 µM
IC50 [4]: > 20 µM
Relative MTT viability (%) ([5]; 1.8 μM): 111 ± 2.9%
Relative MTT viability (%) ([5]; 18 μM): 89 ± 3.7%
Relative MTT viability (%) ([5]; 180 μM): 55 ± 3.3%
Relative SEAP activity (%) ([6]; 1.8 μM): 35 ± 14.1%
SEAP/vibility ([6]; 1.8 μM): 0.35
Relative SEAP activity (%) ([6]; 18 μM): 22 ± 24.4%
SEAP/vibility ([6]; 18 μM): 0.25
Relative SEAP activity (%) ([6]; 180 μM): 31 ± 7.9%
SEAP/vibility ([6]; 180 μM): 0.44
IC50 [7]: > 20 µM

O=C(Nc1ccc(NC(=O)c2cc(F)c(F)cc2F)c2c1C(=O)c1ccccc1C2=O)c1cc(F)c(F)cc1F [VI15, 1,4-Bis(2,4,5-trifluorobenzoylamido)-9,10-anthracenedione]
Relative SEAP activity (%) ([1]; 1.6 μM): 109 ± 10.8%
SEAP/vibility ([1]; 1.6 μM): 1.20
Relative SEAP activity (%) ([1]; 16 μM): 118 ± 10.3%
SEAP/vibility ([1]; 16 μM): 1.45
Relative SEAP activity (%) ([1]; 161 μM): 104 ± 8.2%
SEAP/vibility ([1]; 161 μM): 1.73
Relative MTT viability (%) ([2]; 1.6 μM): 104 ± 4.5%
Relative MTT viability (%) ([2]; 16 μM): 89 ± 5.0%
Relative MTT viability (%) ([2]; 161 μM): 80 ± 3.8%
IC50 [3]: 3.35 µM
IC50 [4]: > 20 µM
Relative MTT viability (%) ([5]; 1.6 μM): 90 ± 6.6%
Relative MTT viability (%) ([5]; 16 μM): 81 ± 1.9%
Relative MTT viability (%) ([5]; 161 μM): 60 ± 5.0%
Relative SEAP activity (%) ([6]; 1.6 μM): 117 ± 14.2%
SEAP/vibility ([6]; 1.6 μM): 1.12
Relative SEAP activity (%) ([6]; 16 μM): 114 ± 20.4%
SEAP/vibility ([6]; 16 μM): 1.29
Relative SEAP activity (%) ([6]; 161 μM): 115 ± 30.8%
SEAP/vibility ([6]; 161 μM): 1.44
IC50 [7]: > 20 µM

O=C(Nc1ccc(NC(=O)c2ccc(Cl)cc2)c2c1C(=O)c1ccccc1C2=O)c1ccc(Cl)cc1 [VI16, 1,4-Bis(4-chlorobenzoylamido)-9,10-anthracenedione]
Relative SEAP activity (%) ([1]; 1.9 μM): 109 ± 6.8%
SEAP/vibility ([1]; 1.9 μM): 1.23
Relative SEAP activity (%) ([1]; 19 μM): 118 ± 5.6%
SEAP/vibility ([1]; 19 μM): 1.33
Relative SEAP activity (%) ([1]; 194 μM): 116 ± 12.3%
SEAP/vibility ([1]; 194 μM): 1.46
Relative MTT viability (%) ([2]; 1.9 μM): 111 ± 0.8%
Relative MTT viability (%) ([2]; 19 μM): 103 ± 5.9%
Relative MTT viability (%) ([2]; 194 μM): 99 ± 5.2%
IC50 [3]: > 20 µM
IC50 [4]: > 20 µM
Relative MTT viability (%) ([5]; 1.9 μM): 89 ± 5.5%
Relative MTT viability (%) ([5]; 19 μM): 89 ± 9.5%
Relative MTT viability (%) ([5]; 194 μM): 79 ± 5.6%
Relative SEAP activity (%) ([6]; 1.9 μM): 116 ± 28.6%
SEAP/vibility ([6]; 1.9 μM): 1.05
Relative SEAP activity (%) ([6]; 19 μM): 112 ± 21.9%
SEAP/vibility ([6]; 19 μM): 1.09
Relative SEAP activity (%) ([6]; 194 μM): 152 ± 39.7%
SEAP/vibility ([6]; 194 μM): 1.54
IC50 [7]: > 20 µM

O=C(Nc1ccc(NC(=O)c2ccc(F)cc2F)c2c1C(=O)c1ccccc1C2=O)c1ccc(F)cc1F [VI18, 1,4-Bis(2,4-difluorobenzoylamido)-9,10-anthracenedione]
Relative SEAP activity (%) ([1]; 1.9 μM): 93 ± 5.6%
SEAP/vibility ([1]; 1.9 μM): 1.06
Relative SEAP activity (%) ([1]; 19 μM): 99 ± 5.4%
SEAP/vibility ([1]; 19 μM): 1.17
Relative SEAP activity (%) ([1]; 192 μM): 99 ± 1.8%
SEAP/vibility ([1]; 192 μM): 1.44
Relative MTT viability (%) ([2]; 1.9 μM): 104 ± 5.6%
Relative MTT viability (%) ([2]; 19 μM): 101 ± 4.4%
Relative MTT viability (%) ([2]; 192 μM): 103 ± 6.1%
IC50 [3]: > 20 µM
IC50 [4]: > 20 µM
Relative MTT viability (%) ([5]; 1.9 μM): 87 ± 3.7%
Relative MTT viability (%) ([5]; 19 μM): 85 ± 7.1%
Relative MTT viability (%) ([5]; 192 μM): 69 ± 8.4%
Relative SEAP activity (%) ([6]; 1.9 μM): 48 ± 21.7%
SEAP/vibility ([6]; 1.9 μM): 0.46
Relative SEAP activity (%) ([6]; 19 μM): 51 ± 18.5%
SEAP/vibility ([6]; 19 μM): 0.50
Relative SEAP activity (%) ([6]; 192 μM): 48 ± 23.1%
SEAP/vibility ([6]; 192 μM): 0.46
IC50 [7]: > 20 µM

O=C1c2ccccc2C(=O)c2c(NC(=O)C3CCCC3)ccc(NC(=O)C3CCCC3)c21 [VI20, 1,4-Bis(cyclopentaneamido)-9,110-anthracenedione]
Relative SEAP activity (%) ([1]; 2.3 μM): 119 ± 8.5%
SEAP/vibility ([1]; 2.3 μM): 1.11
Relative SEAP activity (%) ([1]; 23 μM): 118 ± 9.2%
SEAP/vibility ([1]; 23 μM): 1.15
Relative SEAP activity (%) ([1]; 233 μM): 113 ± 8.9%
SEAP/vibility ([1]; 233 μM): 1.23
Relative MTT viability (%) ([2]; 2.3 μM): 106 ± 2.3%
Relative MTT viability (%) ([2]; 23 μM): 103 ± 4.4%
Relative MTT viability (%) ([2]; 233 μM): 93 ± 5.7%
IC50 [3]: > 20 µM
IC50 [4]: > 20 µM
Relative MTT viability (%) ([5]; 2.3 μM): 107 ± 6.1%
Relative MTT viability (%) ([5]; 23 μM): 103 ± 6.1%
Relative MTT viability (%) ([5]; 233 μM): 92 ± 8.6%
Relative SEAP activity (%) ([6]; 2.3 μM): 85 ± 7.7%
SEAP/vibility ([6]; 2.3 μM): 0.81
Relative SEAP activity (%) ([6]; 23 μM): 93 ± 18.5%
SEAP/vibility ([6]; 23 μM): 0.90
Relative SEAP activity (%) ([6]; 233 μM): 63 ± 36.5%
SEAP/vibility ([6]; 233 μM): 0.67
IC50 [7]: > 20 µM

O=C1c2ccccc2C(=O)c2c(NC(=O)C3CC3)ccc(NC(=O)C3CC3)c21 [VI21, 1,4-Bis(cyclopropionamido)-9,10-anthracenedione]
Relative SEAP activity (%) ([1]; 2.6 μM): 108 ± 4.9%
SEAP/vibility ([1]; 2.6 μM): 1.14
Relative SEAP activity (%) ([1]; 26 μM): 106 ± 7.3%
SEAP/vibility ([1]; 26 μM): 1.21
Relative SEAP activity (%) ([1]; 267 μM): 92 ± 5.9%
SEAP/vibility ([1]; 267 μM): 2.23
Relative MTT viability (%) ([2]; 2.6 μM): 103 ± 6.8%
Relative MTT viability (%) ([2]; 26 μM): 82 ± 5.9%
Relative MTT viability (%) ([2]; 267 μM): 58 ± 4.1%
IC50 [3]: > 20 µM
IC50 [4]: > 20 µM
Relative MTT viability (%) ([5]; 2.6 μM): 95 ± 4.2%
Relative MTT viability (%) ([5]; 26 μM): 88 ± 4.2%
Relative MTT viability (%) ([5]; 267 μM): 41 ± 4.6%
Relative SEAP activity (%) ([6]; 2.6 μM): 64 ± 9.5%
SEAP/vibility ([6]; 2.6 μM): 0.62
Relative SEAP activity (%) ([6]; 26 μM): 54 ± 8.8%
SEAP/vibility ([6]; 26 μM): 0.66
Relative SEAP activity (%) ([6]; 267 μM): 43 ± 8.3%
SEAP/vibility ([6]; 267 μM): 0.74
IC50 [7]: > 20 µM

O=C(Nc1ccc(NC(=O)c2cc(F)cc(Cl)c2Cl)c2c1C(=O)c1ccccc1C2=O)c1cc(F)cc(Cl)c1Cl [VI23]
Relative SEAP activity (%) ([1]; 1.6 μM): 102 ± 4.1%
SEAP/vibility ([1]; 1.6 μM): 1.04
Relative SEAP activity (%) ([1]; 16 μM): 102 ± 5.1%
SEAP/vibility ([1]; 16 μM): 0.99
Relative SEAP activity (%) ([1]; 161 μM): 83 ± 4.0%
SEAP/vibility ([1]; 161 μM): 0.95
Relative MTT viability (%) ([2]; 1.6 μM): 111 ± 6.8%
Relative MTT viability (%) ([2]; 16 μM): 110 ± 7.1%
Relative MTT viability (%) ([2]; 161 μM): 101 ± 6.6%
IC50 [3]: > 20 µM
IC50 [4]: > 20 µM
Relative MTT viability (%) ([5]; 1.6 μM): 98 ± 7.0%
Relative MTT viability (%) ([5]; 16 μM): 103 ± 8.7%
Relative MTT viability (%) ([5]; 161 μM): 87 ± 5.1%
Relative SEAP activity (%) ([6]; 1.6 μM): 113 ± 16.0%
SEAP/vibility ([6]; 1.6 μM): 1.02
Relative SEAP activity (%) ([6]; 16 μM): 131 ± 19.1%
SEAP/vibility ([6]; 16 μM): 1.20
Relative SEAP activity (%) ([6]; 161 μM): 106 ± 17.3%
SEAP/vibility ([6]; 161 μM): 1.05
IC50 [7]: > 20 µM
